The values below come from US8883856B2, “Compositions and methods for the treatment of inflammatory diseases using topoisomerase inhibitors” (priority 2000, dated 2014).

The subject of data set [1] is human neutrophils. The experiment in a line: Neutrophil chemiluminescence (neutrophil activation). The data set is classed as cell-based. As to conditions: for IC50 / inhibition at 10 µM: Homo sapiens, Neutrophil; for IC50: read-out: IC 50, inhibition of neutrophil chemiluminescence. The protocol:
Freshly prepared human neutrophils were incubated with the compound followed by stimulation of the cells with either plasma opsonized CPPD crystals, the bacterial chemoattractant, fMLP or the phorbol ester, PMA. Stimulation (or activation) of the cells induced superoxide anion generation which could be measured by the emission of light (chemiluminescence). Inhibition of neutrophil function was then determined by inhibition of chemiluminescence. Hanks buffered salt solution (HBSS) pH 7.4 was used throughout the study. All chemicals were purchased from Sigma Chemical Co. (St. Louis, Mo.) unless otherwise stated. All procedures were performed at 37° C. unless otherwise stated. CPPD (triclinic) crystals were prepared and characterized as previously reported (Jackson J K et al., J Rheumatol, 24: 341-348, 1996). The size distribution of the crystals was approximately 33% less than […]. Opsonization of crystals was carried out using 50% heparinized plasma and concentrations of 50 mg of CPPD in 1 mL of 50% plasma. Crystals were incubated with diluted plasma for 30 min at 37° C., centrifuged at 1000×g, then washed in HBSS and recentrifuged. Neutrophils were prepared from freshly collected, human, citrated whole blood. Briefly, 400 mL of blood were mixed with 80 mL of 4% dextran T500 (Pharmacia LKB, Biotechnology AB Uppsala, Sweden) in HBSS and allowed to settle for 1 h. Plasma was collected continuously and 5 mL applied to 5 mL Ficoll Paque (Pharmacia) in 15 mL polypropylene tubes (Corning, N.Y.). Following centrifugation at 500×g for 30 min, the neutrophil pellets were washed free of erythrocytes by 20 s of hypotonic shock. Neutrophils were resuspended in HBSS, kept on ice and used for experiments within 3 h. Neutrophil viability and purity was always greater than 90%.
A stock solution of drug was diluted in DMSO to give various concentrations of drug. Equal volumes of these solutions were added to neutrophils at 5×10^6 cells per mL under mild vortexing to achieve final concentrations with a final DMSO concentration of 0.25%. This DMSO concentration found to have no effect on control cell responses. Cells were incubated for 15 minutes at 37° C. before addition to crystals, fMLP or PMA.
Chemiluminescence studies were performed at a cell concentration of 5×10^6 cells per mL in HBSS with CPPD (50 mg/mL). In all experiments 0.5 mL of cells were added to 25 mg of CPPD or 1 uM fMLP (and 0.5 uM cytochalasin B) or 0.5 uM PMA in 1.5 ml Eppendorf tubes. To the tubes were added 10 uL of luminol dissolved in 25% DMSO in HBSS to give a final concentration of 1 μM and the samples were mixed to initiate neutrophil activation. Chemiluminescence was monitored using an LKB Luminometer (Model 1250) at 37° C. with shaking immediately prior to measurements to resuspend the crystals. Control tubes contained cells, drug and luminol (crystals absent).

Data set [2] concerns collagenase gene. The experiment in a line: IL-1 induced collagenase gene expression in chondrocytes. In kind it is cell-based, calf. An excerpt:
(§1) This assay measures the levels of RNA for the two metalloproteinases, collagenase and stromelysin. Over-expression of these genes results in excessive synthesis and secretion of these two enzymes from articular chondrocytes and may represent part of the pathophysiology of rheumatoid arthritis. Agents that inhibit over-expression of collagenase and stromelysin can be antiarthritc agents. […] Proteoglycan gene expression is part of the normal physiology of chondrocytes.
Primary chondrocyte culture was freshly isolated from calf cartilage. The cells were plated (at 2.5×10^6/mL) in 100×20 mm culture dishes and incubated in Ham's F12 medium containing 5% fetal bovine serum (FBS) overnight at 37° C. The cells were starved with serum-free medium overnight. […] Then IL-1 (20 ng/mL) was added to each plate and the plates were incubated for an additional 18 hours. Total RNA was isolated by the acidified guanidine isothiocyanate method and subjected to electrophoresis on a denatured gel. Denatured RNA samples (15 ug) were analyzed by gel electrophoresis in a 1% denaturing gel, transferred to a nylon membrane, and hybridized respectively with the ^32P-labelled collagenase cDNA probe, ^32P-labelled stromelycin cDNA probe, ^32P-labelled proteoglycan cDNA probe and ^32P-labelled glyceraldehyde phosphate dehydrogenase (PAGDH) cDNA. The PAGDH levels acted as an internal standard to ensure roughly equal loading. The experimental results on X-ray films were scanned and analyzed with HP ScanJet.

Data set [3] deals with proteoglycan gene. Description: Proteoglycan gene expression in chondrocytes. The data set is classed as cell-based, calf.
Excerpt: as §1
Primary chondrocyte culture was freshly isolated from calf cartilage. The cells were plated (at 2.5×10^6/mL) in 100×20 mm culture dishes and incubated in Ham's F12 medium containing 5% fetal bovine serum (FBS) overnight at 37° C. The cells were starved with serum-free medium overnight. The cells were pretreated with camptothecin at concentrations of 10^−6 M, 10^−7 M and 10^−8 M for 6 hours. Then IL-1 (20 ng/mL) was added to each plate and the plates were incubated for an additional 18 hours. Total RNA was isolated by the acidified guanidine isothiocyanate method and subjected to electrophoresis on a denatured gel. Denatured RNA samples (15 ug) were analyzed by gel electrophoresis in a 1% denaturing gel, transferred to a nylon membrane, and hybridized respectively with the ^32P-labelled collagenase cDNA probe, ^32P-labelled stromelycin cDNA probe, ^32P-labelled proteoglycan cDNA probe and ^32P-labelled glyceraldehyde phosphate dehydrogenase (PAGDH) cDNA. The PAGDH levels acted as an internal standard to ensure roughly equal loading. The experimental results on X-ray films were scanned and analyzed with HP ScanJet.

Setting [4] is: three agonists: CPPD crystals, fMLP, PMA.

Like-named read-outs stand apart in the source and are kept apart here.

Consider `CC[C@@]1(O)C(=O)OCc2c1cc1n(c2=O)Cc2cc3ccccc3nc2-1` [camptothecin], for which, in data set [1] (concentration printed as (5%)), the “inhibition of neutrophil chemiluminescence” value turned out to be 2%. For the same compound, the “IL-1 induced collagenase gene expression” value in data set [2] (1×10^−7 M) is reported as “almost completely inhibited”. Moreover, in data set [3] (1×10^−7 M), the proteoglycan expression result is reported as “without excessive inhibition”.
`CC1=CC(=O)c2c(O)cccc2C1=O` [plumbagin]: in data set [1] (setting [4]), the IC50 is < 1 µg/mL. Besides, in data set [2] (1×10^−5 M), the “IL-1 induced collagenase gene expression” value is given as “completely inhibited”.
With `COc1cc([C@@H]2c3cc4c(cc3[C@@H](O[C@@H]3O[C@@H]5CO[C@@H](C)O[C@H]5[C@H](O)[C@H]3O)[C@H]3COC(=O)[C@H]23)OCO4)cc(OC)c1O` [etoposide], testing at 10 µM in data set [1] gave an inhibition of 25%. Moreover, the “IL-1 induced collagenase gene expression” value in data set [2] (1×10^−5 M) is recorded as “inhibited”.
With `CC1=CC(=O)c2ccccc2C1=O` [menadione], in data set [1] (activation by MSUM crystals), the IC50 lay in the range of 0.5 to 1 µg/mL. The “IL-1 induced collagenase gene expression” value in data set [2] (1×10^−5 M) is “inhibited”. Further, the proteoglycan expression entry in data set [3] is given as “without excessive inhibition”.
Regarding `CC1(C)CCC2=C(O1)c1ccccc1C(=O)C2=O` [beta-lapachone], the IC50 in data set [1] (setting [4]) was 1 to 10 µM. Moreover, in data set [2] (1×10^−5 M), the “IL-1 induced collagenase gene expression” value is on record as “almost completely inhibited”. For the same compound, the proteoglycan expression entry in data set [3] is “without excessive inhibition”.
As to `COc1cccc2c1C(=O)c1c(O)c3c(c(O)c1C2=O)C[C@@](O)(C(=O)CO)C[C@@H]3O[C@H]1C[C@H](N)[C@H](O)[C@H](C)O1` [doxorubicin], the inhibition at 10 µM in data set [1] came to 13%. For the same compound, in data set [2] (1×10^−5 M), the “IL-1 induced collagenase gene expression” value is given as “completely inhibited”.
